Measurements from EP4692090A1 (Shanghai Fosun Pharmaceutical (Group) Co., Ltd., priority 2023, dated 2024).
pIC50: −log10 of the molar value. Read-outs that look alike come from different tables or passages of the source.

Assays:
ATR kinase = target: T1, ATR kinase (Homo sapiens, UniProt Q13535); assay: Inhibitory effect on ATR kinase activity (Caliper mobility shift, FAM-labeled RAD17 peptide substrate); assay type: biochemical
T1 construct: purchased Eurofins 14-953
Procedure, shortened: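 Caliper mobility-shift assay with 1 nM ATR, FAM-labeled RAD17 peptide […] and 5 mM ATP in HEPES pH 7.5 with 10 mM MnCl2, run 3 h at 28 °C and stopped with EDTA. Compounds were tested in 10-point 3-fold dilutions from 1 µM. IC50 was fitted from % inhibition of substrate conversion versus blank control.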

LoVo cells = assay: LoVo cell proliferation assay (CellTiter-Glo); assay type: cell-based; conditions: maximum concentration 10 µM, 9 concentrations; for pIC50: LoVo cells, 2,000 cells per well, 5 days incubation, CellTiter-Glo, read-out: LoVo IC50; for IC50: read-out: LoVo IC50 (nM), LoVo cells, 2,000 cells per well, 5 days incubation, CellTiter-Glo
Procedure, shortened: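 LoVo cells, 2,000 per well, were treated after overnight attachment with 9-point 3-fold dilutions from 10 µM for 5 days at 37 °C. Viability was read by CellTiter-Glo luminescence. Inhibition % was taken relative to DMSO control, and IC50 came from the concentration–inhibition curve.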

[1] = 1 nM ATR kinase (Eurofins), 28°C for 3 hours, maximum concentration 1 µM, 10 concentrations, read-out: ATR kinase IC50

T1 sequence (Q13535 whole entry): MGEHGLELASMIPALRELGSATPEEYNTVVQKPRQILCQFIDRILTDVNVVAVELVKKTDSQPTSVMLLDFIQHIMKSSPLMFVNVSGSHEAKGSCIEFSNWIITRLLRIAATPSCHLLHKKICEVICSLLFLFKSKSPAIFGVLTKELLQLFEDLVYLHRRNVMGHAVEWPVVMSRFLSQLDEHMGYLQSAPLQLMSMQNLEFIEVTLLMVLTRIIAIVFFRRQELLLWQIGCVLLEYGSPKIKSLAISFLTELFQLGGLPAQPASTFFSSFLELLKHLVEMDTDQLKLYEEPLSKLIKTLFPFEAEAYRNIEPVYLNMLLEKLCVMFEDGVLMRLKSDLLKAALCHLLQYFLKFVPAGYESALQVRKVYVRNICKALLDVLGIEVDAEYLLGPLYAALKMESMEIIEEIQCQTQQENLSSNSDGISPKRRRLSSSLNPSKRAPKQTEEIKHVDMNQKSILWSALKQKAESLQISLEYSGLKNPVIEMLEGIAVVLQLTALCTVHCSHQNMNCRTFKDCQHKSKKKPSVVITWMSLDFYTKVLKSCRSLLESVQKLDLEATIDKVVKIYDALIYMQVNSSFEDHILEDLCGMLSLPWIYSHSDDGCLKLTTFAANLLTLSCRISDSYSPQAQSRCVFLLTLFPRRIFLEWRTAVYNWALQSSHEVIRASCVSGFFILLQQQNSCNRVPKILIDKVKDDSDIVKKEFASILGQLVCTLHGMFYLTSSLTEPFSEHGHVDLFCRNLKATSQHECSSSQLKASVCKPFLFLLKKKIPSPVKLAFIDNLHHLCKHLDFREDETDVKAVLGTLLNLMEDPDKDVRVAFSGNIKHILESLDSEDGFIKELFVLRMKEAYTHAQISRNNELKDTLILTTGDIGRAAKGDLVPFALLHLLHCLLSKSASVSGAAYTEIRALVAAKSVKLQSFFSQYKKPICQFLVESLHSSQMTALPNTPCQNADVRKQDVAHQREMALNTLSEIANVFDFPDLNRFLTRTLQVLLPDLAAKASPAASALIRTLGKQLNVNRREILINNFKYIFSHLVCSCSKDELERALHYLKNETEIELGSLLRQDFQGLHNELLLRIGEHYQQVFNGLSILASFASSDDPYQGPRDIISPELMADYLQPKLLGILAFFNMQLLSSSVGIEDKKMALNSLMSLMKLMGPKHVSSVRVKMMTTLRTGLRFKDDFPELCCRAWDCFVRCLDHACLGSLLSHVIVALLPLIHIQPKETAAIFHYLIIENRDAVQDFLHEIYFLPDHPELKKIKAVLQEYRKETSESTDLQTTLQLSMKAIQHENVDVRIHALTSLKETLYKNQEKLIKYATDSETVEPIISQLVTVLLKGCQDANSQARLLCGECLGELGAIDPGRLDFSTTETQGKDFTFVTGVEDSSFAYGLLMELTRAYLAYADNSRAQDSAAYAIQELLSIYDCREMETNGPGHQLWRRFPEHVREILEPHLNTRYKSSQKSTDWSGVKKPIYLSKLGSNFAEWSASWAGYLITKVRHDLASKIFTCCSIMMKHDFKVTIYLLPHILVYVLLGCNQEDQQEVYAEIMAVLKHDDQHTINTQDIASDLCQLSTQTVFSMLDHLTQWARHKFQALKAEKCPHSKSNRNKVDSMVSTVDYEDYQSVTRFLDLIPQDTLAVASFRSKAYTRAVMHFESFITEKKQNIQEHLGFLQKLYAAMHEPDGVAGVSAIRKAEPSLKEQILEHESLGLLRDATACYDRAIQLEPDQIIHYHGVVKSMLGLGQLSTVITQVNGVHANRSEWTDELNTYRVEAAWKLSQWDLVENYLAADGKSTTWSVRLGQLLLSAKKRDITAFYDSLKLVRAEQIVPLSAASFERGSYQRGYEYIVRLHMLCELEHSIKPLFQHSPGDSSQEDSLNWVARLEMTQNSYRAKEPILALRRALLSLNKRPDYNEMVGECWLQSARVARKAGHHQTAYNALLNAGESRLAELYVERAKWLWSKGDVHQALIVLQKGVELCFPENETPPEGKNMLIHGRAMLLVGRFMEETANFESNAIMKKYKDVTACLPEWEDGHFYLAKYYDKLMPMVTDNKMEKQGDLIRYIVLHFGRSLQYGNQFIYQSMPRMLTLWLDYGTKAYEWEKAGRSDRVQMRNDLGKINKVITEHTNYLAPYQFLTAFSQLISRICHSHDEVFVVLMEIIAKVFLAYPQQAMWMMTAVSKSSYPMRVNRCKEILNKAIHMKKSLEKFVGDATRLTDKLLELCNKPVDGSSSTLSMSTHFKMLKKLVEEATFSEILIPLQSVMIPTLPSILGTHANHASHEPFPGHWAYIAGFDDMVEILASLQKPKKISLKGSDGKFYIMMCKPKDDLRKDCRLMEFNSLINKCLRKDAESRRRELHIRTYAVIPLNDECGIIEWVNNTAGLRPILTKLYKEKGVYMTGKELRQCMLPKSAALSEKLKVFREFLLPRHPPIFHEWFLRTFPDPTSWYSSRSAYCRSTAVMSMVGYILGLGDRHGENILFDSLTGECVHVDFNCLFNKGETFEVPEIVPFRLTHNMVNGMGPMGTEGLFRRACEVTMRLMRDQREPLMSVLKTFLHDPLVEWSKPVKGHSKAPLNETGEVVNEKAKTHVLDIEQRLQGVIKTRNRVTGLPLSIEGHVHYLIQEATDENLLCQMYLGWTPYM
T1 sequence (Q8WXE1 whole entry partner): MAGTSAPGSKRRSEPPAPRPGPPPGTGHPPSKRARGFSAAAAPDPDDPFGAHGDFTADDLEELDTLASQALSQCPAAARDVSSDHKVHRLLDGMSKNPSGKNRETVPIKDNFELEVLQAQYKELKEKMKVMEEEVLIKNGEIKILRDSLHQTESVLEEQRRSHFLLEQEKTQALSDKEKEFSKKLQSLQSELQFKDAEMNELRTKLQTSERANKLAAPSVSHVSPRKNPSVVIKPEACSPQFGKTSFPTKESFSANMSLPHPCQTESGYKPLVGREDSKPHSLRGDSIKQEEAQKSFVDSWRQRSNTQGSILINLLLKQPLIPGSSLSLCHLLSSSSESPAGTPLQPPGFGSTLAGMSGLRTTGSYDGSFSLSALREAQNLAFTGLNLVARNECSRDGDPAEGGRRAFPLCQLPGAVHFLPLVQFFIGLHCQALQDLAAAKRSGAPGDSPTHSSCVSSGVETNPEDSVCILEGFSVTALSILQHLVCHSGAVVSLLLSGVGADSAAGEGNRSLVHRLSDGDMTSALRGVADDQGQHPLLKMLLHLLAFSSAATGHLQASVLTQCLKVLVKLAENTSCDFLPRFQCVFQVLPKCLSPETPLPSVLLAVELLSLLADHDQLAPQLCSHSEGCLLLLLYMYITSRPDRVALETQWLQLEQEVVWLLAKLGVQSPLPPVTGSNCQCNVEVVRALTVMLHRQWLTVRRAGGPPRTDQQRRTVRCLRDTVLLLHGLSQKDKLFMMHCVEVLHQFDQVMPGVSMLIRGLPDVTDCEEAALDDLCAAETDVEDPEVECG

Structure (SMILES) | pIC50 (ATR kinase; [1]) | pIC50 (LoVo cells; Homo sapiens, LoVo, 120 h) | other results
C[C@@H]1COCCN1c1cc2c3c(nn(-c4cc[nH]n4)c3n1)CCN(C(=O)C1CC1(F)F)C2 (stereo partly drawn) [Compound 19, (2,2-difluorocyclopropyl)(4-((R)-3-methylmorpholino)-2-(1H-pyrazol-3-yl)-2,6,8,9-tetrahydro-7H-1,2,3,7-tetraazabenzo[cd]azulene-7-yl)methanone] | > 8.00 | 6.00 to 7.00 | 
C[C@@H]1COCCN1c1cc2c3c(nn(-c4cc[nH]n4)c3n1)CCN(C(=O)C1(C(F)(F)F)CC1)C2 [Compound 18, (R)-(4-(3-methylmorpholinyl)-2-(1H-pyrazol-3-yl)-2,6,8,9-tetrahydro-7H-1,2,3,7-tetraazabenzo[cd]azulen-7-yl)(1-(trifluoromethyl)cyclopropyl)methanone] |  |  | pIC50 (ATR kinase; read-out: ATR kinase IC50, 1 nM ATR kinase (Eurofins), 28°C for 3 hours, maximum concentration 1 µM, 10 concentrations): > 8.00; IC50 (LoVo cells; Homo sapiens, LoVo, 120 h): < 100 nM
C[C@@H]1COCCN1c1cc2c3c(n1)c(-c1cc[nH]n1)nn3CCC(=O)N2C1(C2CC2)CC1 [Compound 108, (R)-6-([1,1'-bis(cyclopropane)]-1-yl)-4-(3-methylmorpholinyl)-2-(1H-pyrazol-3-yl)-8,9-dihydro-1,3,6,9a-tetraazabenzo[cd]azulene-7(6H)-one] |  |  | IC50 (ATR kinase; ATR kinase IC50 (nM), 1 nM ATR kinase (Eurofins), 28°C for 3 hours, maximum concentration 1 µM, 10 concentrations): < 10 nM; IC50 (LoVo cells; Homo sapiens, LoVo, 120 h): 100 to 1000 nM
C[C@@H]1COCCN1c1cc2c3c(nn(-c4cc[nH]n4)c3n1)CCC(=O)N2C1(C)CC1 [Compound 75, (R)-6-(1-methylcyclopropyl)-4-(3-methylmorpholino)-2-(1H-pyrazol-3-yl)-2,6,8,9-tetrahydro-7H-1,2,3,6-tetraazabenzo[cd]azulene-7-one] | > 8.00 | > 7.00 | 
C[C@@H]1COCCN1c1cc2c3c(n1)c(-c1cc[nH]n1)nn3CCN(C(=O)C1CC1)C2 [Compound 54, (R)-cyclopropyl(4-(3-methylmorpholino)-2-(1H-pyrazol-3-yl)-8,9-dihydro-1,3,7,9a-tetraazabenzo[cd]azulene-7(6H)-yl)methanone] | 7.00 to 8.00 | 6.00 to 7.00 | 
C[C@@H]1COCCN1c1cc2c3c(nn(-c4cc[nH]n4)c3n1)CCN(S(C)(=O)=O)C2C1CC1 (single isomer, unassigned) [Compound 138A] | > 8.00 | 6.00 to 7.00 | 
C[C@@H]1COCCN1c1cc2c3c(nn(-c4cc[nH]n4)c3n1)CCN(C1COC1)C2 [Compound 8, (R)-3-Methyl-4-(7-(oxetan-3-yl)-2-(1H-pyrazol-3-yl)-6,7,8,9-tetrahydro-2H-1,2,3,7-tetraazabenzo[cd]azulen-4-yl)morpholine] | 7.00 to 8.00 | 6.00 to 7.00 | 
CC1CC(C(=O)N2CCc3nn(-c4cc[nH]n4)c4nc(N5CCOC[C@H]5C)cc(c34)C2)C1 (stereo partly drawn) [Compound 15, (R)-(3-methylcyclobutyl)(4-(3-methylmorpholino)-2-(1H-pyrazol-3-yl)-2,6,8,9-tetrahydro-7H-1,2,3,7-tetraazabenzo[cd]azulene-7-yl)methanone] | 7.00 to 8.00 | 6.00 to 7.00 | 
CCC1c2cc(N3CCOC[C@H]3C)nc3c2c(nn3-c2cc[nH]n2)CCN1S(=O)(=O)C1CC1 (single isomer, unassigned) [Compound 145B] | > 8.00 |  | pIC50 (LoVo cells): 6.00 to 7.00
C[C@@H]1COCCN1c1cc2c3c(nn(-c4cc[nH]n4)c3n1)CCN(S(=O)(=O)C(F)F)C2 [Compound 27, (R)-4-(7-((difluoromethyl)sulfonyl)-2-(1H-pyrazol-3-yl)-6,7,8,9-tetrahydro-2H-1,2,3,7-tetraazabenzo[cd]azulen-4-yl)-3-methylmorpholine] | > 8.00 | 6.00 to 7.00 | 
CC1c2cc(N3CCOC[C@H]3C)nc3c2c(nn3-c2cc[nH]n2)CCN1S(=O)(=O)C1CC1 (single isomer, unassigned) [Compound 37B] | > 8.00 |  | pIC50 (LoVo cells): > 7.00
C=CS(=O)(=O)N1CCc2nn(-c3cc[nH]n3)c3nc(N4CCOC[C@H]4C)cc(c23)C1C (stereo partly drawn) [Compound 50, (3R)-3-methyl-4-(6-methyl-2-(1H-pyrazol-3-yl)-7-(vinylsulfonyl)-6,7,8,9-tetrahydro-2H-1,2,3,7-tetraazabenzo[cd]azulen-4-yl)morpholine] | > 8.00 | > 7.00 | 
